US8716242B2, “β-hairpin peptidomimetics” (priority 2009, dated 2014)
Like-named read-outs stand apart in the source and are kept apart here. Bridge positions count the residues as written; N and C are the ends. Square brackets hold non-standard residues; d marks the D form. Side chains are listed from the residue outwards. Peptide text beside a SMILES is read from it. * marks the point of attachment. Cholyl = C[C@H](CCC(=O)*)[C@H]1CC[C@H]2[C@@H]3[C@H](O)C[C@@H]4C[C@H](O)CC[C@]4(C)[C@H]3C[C@H](O)[C@]12C; Benzoyl(4-dodecyloxy) = CCCCCCCCCCCCOc1ccc(C(=O)*)cc1; Benzoyl(4-octyloxy) = CCCCCCCCOc1ccc(C(=O)*)cc1; Stearoyl = CCCCCCCCCCCCCCCCCC(=O)*; Myristoyl = CCCCCCCCCCCCCC(=O)*; Decanoyl = CCCCCCCCCC(=O)*; Dab = NCC[C@H](N)C(=O)O

How the values were obtained:
human CXCR4 = biological target: T1, human CXCR4 (Homo sapiens, UniProt P61073); assay: Ca2+-assay: CXCR4-antagonizing activity (SDF-1 induced calcium mobilization); format: cell-based
T1 construct: expressed in transfected cells; host or cells: mouse pre-B cell line 300-19
Excerpt: 2.3. Ca^2+-Assay: CXCR4-Antagonizing Activity of the Peptides
Increases in intracellular calcium were monitored using a Flexstation 384 (Molecular Devices, Sunnyvale, Calif.) to assay the peptides for CXCR4 antagonism in a mouse pre-B cell line 300-19 stably transfected with human CXCR4 (E. Oberlin, A. Amara, F. Bachelerie, C. Bessia, J.-L. Virelizier, F. Arenzana-Seisdedos, O, Schwartz, J.-M. Heard, I. Clark-Lewis, D. F. Legler, M. Loetscher, M. Baggiolini, B. Moser, Nature 1996, 382, 833-835; M. Loetscher, T. Geiser, T. O'Reilly, R. Zwalen, M. Baggiolini, B. Moser, J. Biol. Chem. 1994, 269, 232-237; M. D'Apuuo, A. Rolink, M. Loetscher, J. A. Hoxie, I. Clark-Lewis, F. Melchors, M. Baggiolini, B. Moser, Eur. J. Immunol. 1997, 27, 1788-1793). The cells were batch loaded with the Calcium 4 Assay kit (Molecular Devices) in assay buffer (Hanks Balanced salt solution [HBSS], 20 mM HEPES, pH 7.4, 0.1% BSA) for 1 h at room temperature and labeled cells were dispensed into black well assays plates (Costar No. 3603). Calcium mobilization induced by stromal-derived factor-1 (SDF-1) was measured in the Flexstation 384 (excitation: 485 nm; emission: 525 nm) for 90 seconds. Antagonist activity of peptides was determined by spiking the cells with compounds prior to SDF-1 addition. Dose response curves (compound concentration versus % maximum response for SDF-1) were determined for each antagonist and IC50 values were calculated by fitting the data to a four parameter logistic equation using SoftmaxPro 4.8 (Molecular Devices).

[1] = Cytotoxicity, MTT reduction assay, HELA cells; format: cell-based; conditions: human, HELA cells (Acc57), 12.5-50 μM
In short: (§1)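 HELA (4000/well) and COS-7 (3400/well) cells were grown 24 h, then exposed 48 h at 37° C to peptides at 12.5, 25 and 50 μM in triplicate. MTT reduction read at 595 nm; growth % relative to time-zero, and GI50 interpolated by trend line.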

[2] = Cytotoxicity, MTT reduction assay, COS-7 cells; format: cell-based; conditions: African green monkey, COS-7 cells (CRL-1651), 12.5-50 μM
In short: as §1

[3] = system: human red blood cells (hRBC); assay: Hemolysis of human red blood cells; format: cell-based; conditions: 20% hRBC, 1 h, 37° C.
Experimental: The peptides were tested for their hemolytic activity against human red blood cells (hRBC). Fresh hRBC were washed three times with phosphate buffered saline (PBS) and centrifuged for 10 min at 2000×g. Compounds (100 μM) were incubated with 20% hRBC (v/v) for 1 h at 37° C. and shaking at 300 rpm. The final erythrocyte concentration was approximately 0.9×10^9 cells/mL. A value of 0% and 100% cell lyses, respectively, was determined by incubation of hRBC in the presence of PBS containing 0.001% acetic acid and 2.5% Triton X-100 in H2O, respectively. The samples were centrifuged, the supernatants were 8-fold diluted in PBS buffer and the optical densities (OD) were measured at 540 nm. The 100% lyses value (OD540H2O) gave an OD540 of approximately 0.5-1.0.
Percent hemolysis was calculated as follows: (OD540peptide/OD540H2O)×100%. 2.6. Plasma Stability

[4] = Plasma stability in human plasma; format: in vitro ADME; conditions: for human pl. T1/2 / half-life at 10 μM: up to 1440 min; for half-life at 10 μM: read-out: human pl. T1/2
In short: (§2)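 Peptides (1 mM DMSO/H2O stock) were spiked into human or mouse plasma in triplicate and incubated at 37 °C, sampling from 0 to 1440 min. Samples were quenched in formic acid/acetonitrile and analysed by LC/MS MRM. Remaining percent of t=0 was calculated and T1/2 derived by trend fitting.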

[5] = Plasma stability in mouse plasma; format: in vitro ADME; conditions: for half-life at 10 μM / mouse pl. T1/2: up to 1440 min; for half-life at 10 μM: read-out: mouse pl. T1/2
In short: as §2

[6] = mouse pre-B cell line 300-19 transfected with human CXCR4, SDF-1 induced Ca2+ mobilization, read-out: IC50% [nM] ± SD, CXCR4 receptor
[7] = human plasma, 37° C., 1440 min, read-out: human pl. cpd left at 1440 min
[8] = mouse plasma, 37° C., 1440 min, read-out: mouse pl. cpd left at 1440 min

T1 sequence (P61073 whole entry): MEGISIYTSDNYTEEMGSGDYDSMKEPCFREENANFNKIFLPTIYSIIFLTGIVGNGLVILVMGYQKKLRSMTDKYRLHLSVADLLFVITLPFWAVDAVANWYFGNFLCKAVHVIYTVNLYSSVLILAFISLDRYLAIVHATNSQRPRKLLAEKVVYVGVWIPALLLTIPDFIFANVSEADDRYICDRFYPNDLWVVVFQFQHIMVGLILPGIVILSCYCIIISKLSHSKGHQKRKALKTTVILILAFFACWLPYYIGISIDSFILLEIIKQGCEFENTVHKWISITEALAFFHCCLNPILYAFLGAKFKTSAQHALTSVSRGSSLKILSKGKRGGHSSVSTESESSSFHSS

SMILES | IC50 (human CXCR4; [6]) [nM] | GI50 at 48 h [1] [µM] | GI50 at 48 h [2] [µM] | Hemolysis at 100 μM [3] [%] | remaining at 24 h, 10 μM [4, 7] [%] | human pl. T1/2 ([4]; human plasma, 37° C.) [h] | remaining at 24 h, 10 μM [5, 8] [%] | half-life at 10 μM ([5]; mouse plasma, 37° C.) [h] | half-life at 10 μM ([4]; human plasma, 37° C.) [h] | remaining at 24 h, 10 μM ([4]; human, plasma) [%] | remaining at 24 h, 10 μM ([5]; mouse, plasma) [%] | mouse pl. T1/2 ([5]; mouse plasma, 37° C.) [h] | IC50 (human CXCR4) [nM]
CCCCCCCCCC(=O)NCCCC[C@@H]1NC(=O)[C@H](Cc2ccc(O)cc2)NC(=O)[C@@H]2CSSC[C@H](NC(=O)[C@H]([C@@H](C)O)NC(=O)[C@H](Cc3c[nH]cn3)NC(=O)[C@H](Cc3ccc(O)cc3)NC(=O)[C@@H]3CCCN3C(=O)[C@H]3CCCN3C(=O)[C@H](CCCCN)NC1=O)C(=O)N[C@@H](CCCNC(=N)N)C(=O)N[C@@H](C)C(=O)N[C@H](Cc1ccc(O)cc1)C(=O)N[C@@H](CCN)C(=O)N[C@@H](CCCNC(=N)N)C(=O)N[C@@H](Cc1ccc(O)cc1)C(=O)N2 [Ex. 14] (cyclo(YHTCRA[dY][Dab]RYCYK(Decanoyl)K[dP]P); disulfide 4-11) | 40.8 ± 12 | > 50 | > 50 | 0.6 | 91 | 24 | 23 | 9.42 |  |  |  |  | 
CCCCCCCCCC(=O)NCCCC[C@@H]1NC(=O)[C@H](Cc2ccc(O)cc2)NC(=O)[C@@H]2CSSC[C@H](NC(=O)[C@H]([C@@H](C)O)NC(=O)[C@H](Cc3c[nH]cn3)NC(=O)[C@H](Cc3ccc(O)cc3)NC(=O)[C@@H]3CCCN3C(=O)[C@@H](Cc3ccc(O)cc3)NC(=O)[C@H](CCCCN)NC1=O)C(=O)N[C@@H](CCCNC(=N)N)C(=O)N[C@@H](C)C(=O)N1CCC[C@@H]1C(=O)N[C@@H](CCN)C(=O)N[C@@H](CCCNC(=N)N)C(=O)N[C@@H](Cc1ccc(O)cc1)C(=O)N2 [Ex. 16] (cyclo(YHTCRA[dP][Dab]RYCYK(Decanoyl)K[dY]P); disulfide 4-11) | 18.2 ± 11 | > 50 | > 50 | 0.5 |  |  |  | 10.3 | 19.9 | 48 | 35 |  | 
CCCCCCCCCCCCCC(=O)NCCCC[C@@H]1NC(=O)[C@H](Cc2ccc(O)cc2)NC(=O)[C@@H]2CSSC[C@H](NC(=O)[C@H](Cc3ccc(O)cc3)NC(=O)[C@H](Cc3c[nH]cn3)NC(=O)[C@H](Cc3ccc(O)cc3)NC(=O)[C@@H]3CCCN3C(=O)[C@H]3CCCN3C(=O)[C@H](CCCCN)NC1=O)C(=O)N[C@@H](CO)C(=O)N[C@@H](C)C(=O)N1CCC[C@@H]1C(=O)N[C@@H](CCN)C(=O)N[C@@H](CCCNC(=N)N)C(=O)N[C@@H](Cc1ccc(O)cc1)C(=O)N2 [Ex. 18] (cyclo(YHYCSA[dP][Dab]RYCYK(Myristoyl)K[dP]P); disulfide 4-11) | 15.7 ± 3.9 | > 25 | > 50 | 9.2 | 71 | 24 | 78 |  |  |  |  | 24 | 
CCCCCCCCCCCCCC(=O)NCCCC[C@@H]1NC(=O)[C@H](Cc2ccc(O)cc2)NC(=O)[C@@H]2CSSC[C@H](NC(=O)[C@H](C)NC(=O)[C@H](Cc3c[nH]cn3)NC(=O)[C@H](Cc3ccc(O)cc3)NC(=O)[C@@H]3CCCN3C(=O)[C@H]3CCCN3C(=O)[C@H](CCCCN)NC1=O)C(=O)N[C@@H](CCCNC(=N)N)C(=O)N[C@@H](C)C(=O)N1CCC[C@@H]1C(=O)N[C@@H](CCN)C(=O)N[C@@H](CCCNC(=N)N)C(=O)N[C@@H](Cc1ccc(O)cc1)C(=O)N2 [Ex. 19] (cyclo(YHACRA[dP][Dab]RYCYK(Myristoyl)K[dP]P); disulfide 4-11) | 9.1 ± 4.2 | > 32 | > 50 | 1.2 | 99 | 24 | 76 |  |  |  |  | 24 | 
CCCCCCCCCCCCCCCCCC(=O)NCCCC[C@@H]1NC(=O)[C@H](Cc2ccc(O)cc2)NC(=O)[C@@H]2CSSC[C@H](NC(=O)[C@H](Cc3ccc(O)cc3)NC(=O)[C@H](Cc3c[nH]cn3)NC(=O)[C@H](Cc3ccc(O)cc3)NC(=O)[C@@H]3CCCN3C(=O)[C@H]3CCCN3C(=O)[C@H](CCCCN)NC1=O)C(=O)N[C@@H](CO)C(=O)N[C@@H](C)C(=O)N1CCC[C@@H]1C(=O)N[C@@H](CCN)C(=O)N[C@@H](CCCNC(=N)N)C(=O)N[C@@H](Cc1ccc(O)cc1)C(=O)N2 [Ex. 22] (cyclo(YHYCSA[dP][Dab]RYCYK(Stearoyl)K[dP]P); disulfide 4-11) | 7.3 ± 3 | > 35 | > 50 | 9.6 | 72 | 24 | 82 |  |  |  |  | 24 | 
CCCCCCCCOc1ccc(C(=O)NCCCC[C@@H]2NC(=O)[C@H](Cc3ccc(O)cc3)NC(=O)[C@@H]3CSSC[C@H](NC(=O)[C@H](C)NC(=O)[C@H](Cc4c[nH]cn4)NC(=O)[C@H](Cc4ccc(O)cc4)NC(=O)[C@@H]4CCCN4C(=O)[C@H]4CCCN4C(=O)[C@H](CCCCN)NC2=O)C(=O)N[C@@H](CCCNC(=N)N)C(=O)N[C@@H](C)C(=O)N2CCC[C@@H]2C(=O)N[C@@H](CCN)C(=O)N[C@@H](CCCNC(=N)N)C(=O)N[C@@H](Cc2ccc(O)cc2)C(=O)N3)cc1 [Ex. 23] (cyclo(YHACRA[dP][Dab]RYCYK(Benzoyl(4-octyloxy))K[dP]P); disulfide 4-11) |  | > 22 | > 50 | 7.8 | 100 | 24 | 74 |  |  |  |  | 24 | 8.3 ± 3.2
CCCCCCCCCCCCOc1ccc(C(=O)NCCCC[C@@H]2NC(=O)[C@H](Cc3ccc(O)cc3)NC(=O)[C@@H]3CSSC[C@H](NC(=O)[C@H](Cc4ccc(O)cc4)NC(=O)[C@H](Cc4c[nH]cn4)NC(=O)[C@H](Cc4ccc(O)cc4)NC(=O)[C@@H]4CCCN4C(=O)[C@H]4CCCN4C(=O)[C@H](CCCCN)NC2=O)C(=O)N[C@@H](CO)C(=O)N[C@@H](C)C(=O)N2CCC[C@@H]2C(=O)N[C@@H](CCN)C(=O)N[C@@H](CCCNC(=N)N)C(=O)N[C@@H](Cc2ccc(O)cc2)C(=O)N3)cc1 [Ex. 24] (cyclo(YHYCSA[dP][Dab]RYCYK(Benzoyl(4-dodecyloxy))K[dP]P); disulfide 4-11) |  | > 29 | > 50 | 10.9 | 24 |  | 22 | 9.27 | 2.12 |  |  |  | 6.1 ± 4.5
C[C@H](CCC(=O)NCC(=O)NCCCC[C@@H]1NC(=O)[C@H](CCC(N)=O)NC(=O)[C@H](Cc2ccc(O)cc2)NC(=O)[C@@H]2CSSC[C@H](NC(=O)[C@H]([C@@H](C)O)NC(=O)[C@H](Cc3c[nH]cn3)NC(=O)[C@H](Cc3ccc(O)cc3)NC(=O)[C@@H]3CCCN3C(=O)[C@H]3CCCN3C1=O)C(=O)N[C@@H](CCCNC(=N)N)C(=O)NCC(=O)N1CCC[C@@H]1C(=O)N[C@@H](CCN)C(=O)N[C@@H](CCCNC(=N)N)C(=O)N[C@@H](Cc1ccc(O)cc1)C(=O)N2)[C@H]1CC[C@H]2[C@@H]3[C@H](O)C[C@@H]4C[C@H](O)CC[C@]4(C)[C@H]3C[C@H](O)[C@]12C [Ex. 34] (cyclo(YHTCRG[dP][Dab]RYCYQK([Gly-Cholyl])[dP]P); disulfide 4-11) |  | > 45 | > 50 | 0.6 | 100 | 24 | 87 |  |  |  |  | 24 | 7.2 ± 0.3
